Two compounds from US10144758B2, “Deuterated bile acids” (Metselex, Inc., priority 2013, dated 2018) can be followed below.

For the assay, the system named is primary rat hepatocytes. Kind of assay: DCA-induced cytotoxicity, LDH release. The assay is classed as cell-based. The method, then: Primary rat hepatocytes were isolated from male rats (100-150 grams) by collagenase perfusion (as described by Solá S, et al., 2003, Journal of Biological Chemistry 278: 48831-48838)). Briefly, rats were anesthetized with phenobarbital sodium (100 mg/kg body weight) injected into the peritoneal cavity. After administration of heparin (200 units/kg body weight) in the tail vein, the animal's abdomen was opened and the portal vein exposed and cannulated. The liver was then perfused at 37° C. in situ with a calcium-free Hanks' Balanced Salt Solution (HBSS) for about 10 minutes, and then with 0.05% collagenase type IV in calcium-present HBSS for another 10 minutes. Hepatocyte suspensions were obtained by passing collagenase-digested livers through 125 μm gauze and washing cells in Complete William's E medium (William's E medium, Sigma-Aldrich Corp., St Louis, Mo., USA) supplemented with 26 mM sodium bicarbonate, 23 mM HEPES, 0.01 units/mL insulin, 2 mM L-glutamine, 10 nM dexamethasone, 100 units/mL penicillin, and 10% heat-inactivated fetal bovine serum (Invitrogen Corp., Carlsbad, Calif., USA). Viable primary rat hepatocytes were enriched by low-speed centrifugation at 200 g for 3 minutes. Cell viability was determined by trypan blue exclusion and was typically 80-85%. After isolation, hepatocytes were resuspended in Complete William's E medium and plated on PrimariaTM tissue culture dishes (BD Biosciences, San Jose, Calif., USA) at 5×10^4 cells/cm^2. Cells were maintained at 37° C. in a humidified atmosphere of 5% CO2 for 6 hours to allow attachment. Plates were then washed with medium to remove dead cells and incubated in Complete William's E medium supplemented with either 100-400 μM UDCA (Sigma-Aldrich Corp.), 100-400 μM deuterated UDCA (compound 5), or no addition (control). Eight hours after pre-incubation, cells were exposed to 1 nM recombinant human TGF-β1 (R&D Systems Inc., Minneapolis, Minn., USA) for 36 hours, or to 50 or 100 μM DCA for 16 hours before processing for cell viability, cytotoxicity and apoptosis assays. The ApoTox-GloTM Triplex Assay (Promega Corp., Madison, Wis., USA) was used to evaluate cell viability, cytotoxicity and caspase-3/7 activity, according to the manufacturer's protocol, using a GloMax+ Multi Detection System (Promega Corp.). General cell death was also evaluated using the lactate dehydrogenase (LDH) Cytotoxicity Detection Kit^PLUS (Roche Diagnostics GmbH, Mannheim, Germany), following the manufacturer's instructions. FIG. 7 illustrates that Compound 5 prevents DCA-induced cytotoxicity and apoptosis in primary rat hepatocytes. […] Results are expressed as means±SEM of at least three experiments. *p<0.01 from control; § p<0.05 and †p<0.01 from respective DCA.
Background: LDH leaks from cells whose membrane has failed.

Turning to “7,8-[^2H]-3α,7α-dihydroxy-5β-cholan-24-oic acid/7-[^2H]-3α,7α-dihydroxy-5β-cholan-24-oic acid [Compound 5]”, under “50 μM DCA 16 hours, 100 μM compound pre-incubated 8 hours, FIG. 7A”, the “inhibition of DCA-induced LDH release” value came out at 90%. In addition, the “protective effect on LDH release greater than UDCA” value (50 μM DCA, Compound 5 versus UDCA) is “more than 10%”. Besides, the “protection against DCA-induced LDH release” value (100 μM DCA, compared with 50 μM DCA) is “Slightly reduced protection”.
In the case of `C[C@H](CCC(=O)O)[C@H]1CC[C@H]2[C@@H]3[C@@H](O)C[C@@H]4C[C@H](O)CC[C@]4(C)[C@H]3CC[C@]12C` [UDCA, Ursodeoxycholic acid, reference compound], for the setting “Rattus norvegicus, Hepatocyte, 50 μM DCA 16 hours, 100 μM compound pre-incubated 8 hours, FIG. 7A”, at 100 µM the inhibition was 70%.
